Tested on: KRAS patient-derived spheroids with HUVEC/MSC, viability
Assay: Anticancer human tumor 323965-272-R-J2-PDC patient-derived pancreatic carcinoma cell line growth inhibition [KRAS2]
Settings: for IC50: curve of first compound; for viability, T/C: stronger effect = lower value
Method in brief: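 KRAS-mutant tumor cells were grown as spheroids with HUVEC endothelial cells and human MSCs as stroma. Targeted agents were tested alone and with KRAS pathway inhibitors. Doses started at or near clinical Cmax, or 10 microM, descending half-log.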

[1] = second compound 0.1 µM, first compound 0.0316 µM
[2] = second compound 0.1 µM, first compound 0.1 µM
[3] = second compound 0.1 µM, first compound 0.316 µM
[4] = second compound 0.1 µM, first compound 1 µM
[5] = second compound 0.1 µM, first compound 3.16 µM
[6] = second compound 0.1 µM, first compound 10 µM
[7] = second compound 0.316 µM, first compound 0.0316 µM
[8] = second compound 0.316 µM, first compound 0.1 µM
[9] = second compound 0.316 µM, first compound 0.316 µM
[10] = second compound 0.316 µM, first compound 1 µM
[11] = second compound 0.316 µM, first compound 3.16 µM
[12] = second compound 0.316 µM, first compound 10 µM
[13] = second compound 1 µM, first compound 0.0316 µM
[14] = second compound 1 µM, first compound 0.1 µM
[15] = second compound 1 µM, first compound 0.316 µM
[16] = second compound 1 µM, first compound 1 µM
[17] = second compound 1 µM, first compound 3.16 µM
[18] = second compound 1 µM, first compound 10 µM
[19] = second compound 3.16 µM, first compound 0.0316 µM
[20] = second compound 3.16 µM, first compound 0.1 µM
[21] = second compound 3.16 µM, first compound 0.316 µM
[22] = second compound 3.16 µM, first compound 1 µM
[23] = second compound 3.16 µM, first compound 3.16 µM
[24] = second compound 3.16 µM, first compound 10 µM
[25] = second compound 10 µM, first compound 0.0316 µM
[26] = second compound 10 µM, first compound 0.1 µM
[27] = second compound 10 µM, first compound 0.316 µM
[28] = second compound 10 µM, first compound 1 µM
[29] = second compound 10 µM, first compound 3.16 µM
[30] = second compound 10 µM, first compound 10 µM
[31] = second compound 0.1 µM, first compound 0.01 µM
[32] = second compound 0.316 µM, first compound 0.01 µM
[33] = second compound 1 µM, first compound 0.01 µM
[34] = second compound 3.16 µM, first compound 0.01 µM
[35] = second compound 10 µM, first compound 0.01 µM
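Further: spheroids exposed to agents for 7 days.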
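Wherever viability, T/C is given: 100% = DMSO vehicle control viability.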

Row | SMILES | IC50 (second compound 0.1 µM) | IC50 (second compound 0.316 µM) | IC50 (second compound 1 µM) | IC50 (second compound 3.16 µM) | IC50 (second compound 10 µM) | viability, T/C [1] | viability, T/C [2] | viability, T/C [3] | viability, T/C [4] | viability, T/C [5] | viability, T/C [7] | viability, T/C [8] | viability, T/C [9] | viability, T/C [10] | viability, T/C [13] | viability, T/C [14] | viability, T/C [19] | viability, T/C [20] | viability, T/C [25] | viability, T/C [26] | other results
1 | CC1OCC2(CCN(c3cnc(Sc4ccnc(N)c4Cl)c(N)n3)CC2)C1N (stereo not given) + CNCc1ccccc1-c1csc(C(C)Nc2nc(C)nc3cc(OC)c(OC)cc23)c1 | 0.404 µM | 0.202 µM | 0.548 µM | 0.351 µM | < 0.0316 µM | 77.4% | 65.6% | 53.4% | 38.6% | 28.7% | 82.1% | 55.4% | 44.1% | 41.6% | 101% | 71.9% | 83.5% | 65.8% | 0.33% | 0.17% | viability, T/C [6]: 17.8%; viability, T/C [11]: 27.9%; viability, T/C [12]: 25.9%; viability, T/C [15]: 60.5%; viability, T/C [16]: 40.7%; viability, T/C [17]: 35.1%; viability, T/C [18]: 33.4%; viability, T/C [21]: 51.3%; viability, T/C [22]: 40.8%; viability, T/C [23]: 27%; viability, T/C [24]: 25.5%; viability, T/C [27]: 0.15%; viability, T/C [28]: 0.14%; viability, T/C [29]: 0.13%; viability, T/C [30]: 0.18%
2 | Cn1nccc1Nc1nccc(-c2cc3c(s2)C(C)(C)N(CCN2CCOCC2)C3=O)n1 + CNCc1ccccc1-c1csc(C(C)Nc2nc(C)nc3cc(OC)c(OC)cc23)c1 | 1.05 µM | 1.36 µM | 3.97 µM | 1.66 µM | < 0.0316 µM | 98.5% | 84.4% | 64.6% | 51.3% | 41% | 86.9% | 79.3% | 71.9% | 52.2% | 95.5% | 89.4% | 92.6% | 78.5% | 0.23% | 0.22% | viability, T/C [6]: 37.2%; viability, T/C [11]: 41.7%; viability, T/C [12]: 38.1%; viability, T/C [15]: 72.8%; viability, T/C [16]: 67.3%; viability, T/C [17]: 48.1%; viability, T/C [18]: 45%; viability, T/C [21]: 70%; viability, T/C [22]: 54.9%; viability, T/C [23]: 43.2%; viability, T/C [24]: 30%; viability, T/C [27]: 0.19%; viability, T/C [28]: 0.17%; viability, T/C [29]: 0.17%; viability, T/C [30]: 0.19%
3 | CC(=O)OC12COC1CC(O)C1(C)C(=O)C(O)C3=C(C)C(OC(=O)C(O)C(NC(=O)OC(C)(C)C)c4ccccc4)CC(O)(C(OC(=O)c4ccccc4)C21)C3(C)C (stereo not given) + COc1cc2nc(C)nc(NC(C)c3cc(N)cc(C(F)(F)F)c3)c2cc1OC1CCOC1 | < 0.01 µM | < 0.01 µM | < 0.01 µM | < 0.01 µM | < 0.01 µM | 28.6% | 23.8% | 23.2% | 28.2% | 25.2% | 24.5% | 21.6% | 22.4% | 24.5% | 28% | 27.6% | 20.1% | 18.8% | 21.2% | 17.8% | viability, T/C [31]: 28.6%; viability, T/C [32]: 24.2%; viability, T/C [11]: 25.2%; viability, T/C [33]: 21.6%; viability, T/C [15]: 27.2%; viability, T/C [16]: 30.4%; viability, T/C [17]: 35.3%; viability, T/C [34]: 21.4%; viability, T/C [21]: 20.4%; viability, T/C [22]: 20.1%; viability, T/C [23]: 24.3%; viability, T/C [35]: 23.1%; viability, T/C [27]: 17.1%; viability, T/C [28]: 21.2%; viability, T/C [29]: 15.8%
4 | CN(C)C/C=C/C(=O)Nc1cc2c(Nc3ccc(F)c(Cl)c3)ncnc2cc1O[C@H]1CCOC1 + COc1cc2nc(C)nc(NC(C)c3cc(N)cc(C(F)(F)F)c3)c2cc1OC1CCOC1 | > 0.1 µM | > 0.1 µM | > 0.1 µM | 0.025 µM | 0.0148 µM | 62.1% | 60.7% |  |  |  | 51.2% | 54.5% |  |  | 61.3% | 69.1% | 47.8% | 49.2% | 49.1% | 48.4% | viability, T/C (second compound 0.1 µM, first compound 0.000316 µM): 84.3%; viability, T/C (second compound 0.1 µM, first compound 0.001 µM): 65.2%; viability, T/C (second compound 0.1 µM, first compound 0.00316 µM): 65.8%; viability, T/C [31]: 60.5%; viability, T/C (second compound 0.316 µM, first compound 0.000316 µM): 67.7%; viability, T/C (second compound 0.316 µM, first compound 0.001 µM): 65.6%; viability, T/C (second compound 0.316 µM, first compound 0.00316 µM): 53.6%; viability, T/C [32]: 46.5%; viability, T/C (second compound 1 µM, first compound 0.000316 µM): 59.5%; viability, T/C (second compound 1 µM, first compound 0.001 µM): 94.3%; viability, T/C (second compound 1 µM, first compound 0.00316 µM): 74.7%; viability, T/C [33]: 73%; viability, T/C (second compound 3.16 µM, first compound 0.000316 µM): 74.3%; viability, T/C (second compound 3.16 µM, first compound 0.001 µM): 71.7%; viability, T/C (second compound 3.16 µM, first compound 0.00316 µM): 59.5%; viability, T/C [34]: 54.2%; viability, T/C (second compound 10 µM, first compound 0.000316 µM): 92.1%; viability, T/C (second compound 10 µM, first compound 0.001 µM): 75.8%; viability, T/C (second compound 10 µM, first compound 0.00316 µM): 59.3%; viability, T/C [35]: 49.4%
5 | COC(=O)c1ccc2c(C(=Nc3ccc(N(C)C(=O)CN4CCN(C)CC4)cc3)c3ccccc3)c(O)[nH]c2c1 + COc1cc2nc(C)nc(NC(C)c3cc(N)cc(C(F)(F)F)c3)c2cc1OC1CCOC1 | > 10 µM | > 10 µM | > 10 µM | > 10 µM | > 10 µM | 92.9% | 102% | 102% | 106% | 92.6% | 89.3% | 81% | 84.1% | 78.8% | 82.6% | 73.2% | 77.3% | 77.6% | 90.8% | 86% | viability, T/C [6]: 86%; viability, T/C [11]: 78.1%; viability, T/C [12]: 74.6%; viability, T/C [15]: 76.8%; viability, T/C [16]: 74.6%; viability, T/C [17]: 70.8%; viability, T/C [18]: 68.9%; viability, T/C [21]: 75.6%; viability, T/C [22]: 81.5%; viability, T/C [23]: 79.3%; viability, T/C [24]: 75.7%; viability, T/C [27]: 77.4%; viability, T/C [28]: 72.8%; viability, T/C [29]: 77.8%; viability, T/C [30]: 69.7%
6 | O=C(c1cc(Cc2n[nH]c(=O)c3ccccc23)ccc1F)N1CCN(C(=O)C2CC2)CC1 + COc1cc2nc(C)nc(NC(C)c3cc(N)cc(C(F)(F)F)c3)c2cc1OC1CCOC1 | > 10 µM | > 10 µM | > 10 µM | > 10 µM | > 10 µM | 101% | 107% | 94.1% | 98.8% | 88% | 90.3% | 81% | 83.5% | 84.9% | 102% | 103% | 81.5% | 82.2% | 76.7% | 76.3% | viability, T/C [6]: 59.1%; viability, T/C [11]: 78.9%; viability, T/C [12]: 57.7%; viability, T/C [15]: 95.5%; viability, T/C [16]: 99%; viability, T/C [17]: 94.6%; viability, T/C [18]: 50.2%; viability, T/C [21]: 76.1%; viability, T/C [22]: 83.2%; viability, T/C [23]: 76.9%; viability, T/C [24]: 52.5%; viability, T/C [27]: 78.8%; viability, T/C [28]: 75.8%; viability, T/C [29]: 75.9%; viability, T/C [30]: 51.2%
